Experimental data from ChEMBL document CHEMBL1212705, “Gene expression signatures and small-molecule compounds link a protein kinase to Plasmodium falciparum motility” (Nat Chem Biol, 2008).

Experiments:
Plasmodium falciparum [1] = experiment: Antiplasmodial activity against Plasmodium falciparum 3D7 after 72 hrs by SYBR green assay; assay type: functional, organism-based; details: 3D7, 72 h
[2] = Inhibition of GST-fused Plasmodium falciparum recombinant CDPK1 expressed in Escherichia coli Rosetta 2 assessed as inhibition of [gamma-33P]ATP incorporation into substrate peptide by scintillation counting
Plasmodium falciparum [3] = experiment: Antiplasmodial activity against Plasmodium falciparum 3D7 by [3H]hypoxanthine incorporation assay; details: 3D7, 3 h

For `N[C@H]1CC[C@H](Nc2nc(Nc3ccc(C(=O)N4CCCCC4)cc3)c3ncn(-c4cccc(OCc5ccccc5)c4)c3n2)CC1`, the EC50 (Plasmodium falciparum [1]) was 312 nM and the IC50 [2] was 4040 nM.
With `N[C@H]1CC[C@H](Nc2nc(Nc3ccc(C(=O)N4CCCCC4)cc3)c3ncn(-c4ccc5c(c4)OCO5)c3n2)CC1` the EC50 (Plasmodium falciparum [1]) was 400 nM and the IC50 [2] was 342 nM.
In the case of `N[C@H]1CC[C@H](Nc2nc(Nc3ccc(C(=O)N4CCCCC4)cc3)c3ncn(-c4cccc(C(=O)O)c4)c3n2)CC1`, the EC50 (Plasmodium falciparum [1]) is reported as over 10000 nM and the IC50 [2] is reported as 71 nM.
Compound `N[C@H]1CC[C@H](Nc2nc(Nc3ccc(C(=O)N4CCCCC4)cc3)c3ncn(-c4ccc(C(=O)O)cc4)c3n2)CC1` has an EC50 (Plasmodium falciparum [1]) of over 10000 nM and an IC50 [2] of 28 nM.
`CCOc1ccc(-n2cnc3c(Nc4ccc(C(=O)N5CCCCC5)cc4)nc(N[C@H]4CC[C@H](N)CC4)nc32)cc1` gave an EC50 (Plasmodium falciparum [1]) of 535 nM and an IC50 [2] of 240 nM.
With `CC(C)(C)c1ccc(-n2cnc3c(Nc4ccc(C(=O)N5CCCCC5)cc4)nc(N[C@H]4CC[C@H](N)CC4)nc32)cc1` the EC50 (Plasmodium falciparum [1]) was 596 nM and the IC50 [2] was 3490 nM.
With `N[C@H]1CC[C@H](Nc2nc(Nc3ccc(CN4CCOCC4)cc3)c3ncn(-c4ccccc4)c3n2)CC1` the EC50 (Plasmodium falciparum [1]) was 174 nM and the IC50 [2] was 703 nM.
`CN1CCN(C(=O)c2cccc(Nc3nc(N[C@H]4CC[C@H](N)CC4)nc4c3ncn4-c3ccccc3)c2)CC1` showed an EC50 (Plasmodium falciparum [1]) of 1300 nM and an IC50 [2] of 6870 nM.
Work on `O=C(c1ccc(Nc2nc(NCCCN3CCOCC3)nc3c2ncn3-c2ccccc2)cc1)N1CCCCC1` yielded an EC50 (Plasmodium falciparum [1]) of 2990 nM and an IC50 [2] of 430 nM.
In the case of `O=C(c1ccc(Nc2nc(Nc3cnc4ccccc4c3)nc3c2ncn3-c2ccccc2)cc1)N1CCCCC1`, the EC50 (Plasmodium falciparum [1]) is reported as 101 nM and the IC50 [2] is reported as 3850 nM.
Compound `O=C(c1ccc(Nc2nc(N[C@H]3CC[C@H](O)CC3)nc3c2ncn3-c2cccc(F)c2)cc1)N1CCCCC1` has an EC50 (Plasmodium falciparum [1]) of over 10000 nM and an IC50 [2] of 150 nM.
In the case of `O=C(c1ccc(Nc2nc(NCCc3c[nH]cn3)nc3c2ncn3-c2cccc(Cl)c2)cc1)N1CCCCC1`, the EC50 (Plasmodium falciparum [1]) is reported as 352 nM and the IC50 [2] is reported as 626 nM.
In the case of `C[C@@H]1CC[C@H]2[C@@H](C)C(=O)O[C@@H]3O[C@@]4(C)CC[C@@H]1[C@]32OO4` [ARTEMISININ], the EC50 (Plasmodium falciparum [1]) is reported as 28 nM and the EC50 (Plasmodium falciparum [3]) is reported as under 10 nM.
`CCN(CC)CCCC(C)Nc1ccnc2cc(Cl)ccc12` (configuration not stated) [CHLOROQUINE] gave an EC50 (Plasmodium falciparum [3]) of under 10 nM.
